Data on two molecules can be found in publication PMC10986598, “Investigating inhibitors of 1-deoxy-D-xylulose 5-phosphate synthase in a mouse model of UTI” (Microbiology Spectrum, 2024).

For series [1], the system named is UPEC (CFT073). More on the design: method as in PMID 37107054. As to conditions: cited from earlier work.
A short description of series [2]: In vivo PK studies in CD-1 mice. Here is the method:
For pharmacokinetic analysis, both male (n = 2) and female (n = 2) CD1 mice were dosed with either BAP or pro-hpAP by intraperitoneal (IP) route or administration (100 mg/kg) and (30 mg/kg), respectively. Blood and tissue samples were collected at predetermined time points (0–6 h post-dose). Plasma was generated from blood by low-speed centrifugation (3,000 × g), and all samples were stored at −80°C until bioanalysis.
Non-compartmental-analysis module in WinNonlin was used to assess blood pharmacokinetic parameters including max concentrations (Cmax), time to Cmax (Tmax), area under the curve (AUC), area extrapolated to infinity (AUC0–∞), and terminal half-life (t1/2). In addition, the tissue penetration index was measured as the ratio of AUCtissue to AUCplasma.
To quantify BAP and pro-hpAP, methanol containing 0.5 µM losartan as an internal standard was added 5 µL/µL plasma or 5 µL/mg tissue in microcentrifuge tubes. Tissue was further homogenized using a Spex Geno/Grinder with stainless steel beads for 3 min at 1,500 RPM. Homogenates from untreated animals were spiked with the analytes from 100 to 0.01 nmol/g tissue by serial dilution to generate a standard curve. Plasma and tissue homogenates were then vortexed and centrifuged (16,000 × g for 5 min at 4°C) to precipitate proteins. Supernatants were transferred to a 96 well plate and 2 µL was injected on a Accela 1250 LC coupled to a Vantage triple quadrupole mass spectrometer (Thermo Fisher Scientific Inc., Waltham MA). Samples were separated on an Agilent EclipsePlus C18 RRHD (1.8 µm) 2.1 × 100 mm column with mobile phases consisting of water +0.1% formic acid (A), and acetonitrile + 0.1% formic acid (B). […] Samples were introduced to the source through heated ion spray with the capillary temperature setting at 350°C, spray voltage of 4 kV and S-Lens RF of 51. Nitrogen was used as the sheath and auxiliary gas with the settings of 50 and 1 arbitrary units, respectively. For BAP, the instrument was operated in negative ion mode scanning for transitions of 179.1 > 63.1, 79.1 (BAP) and 420.9 > 179.1, 127.0 (losartan) which were acquired with collision energies setting of 17; 55 and 25; 41 CE, respectively. For pro-hpAP, the instrument was operated in positive ion mode scanning for transitions of 346.2 to 86.1 and 143.2 (pro-hpAP) and 422.9 to 207.1 and 180.1 (losartan) which were acquired with collision energies setting of 29; 17 and 37; 22 CE, respectively. Peaks were quantified with Xcalibur software.

A further series concerns DXPS. More on the design: method as in PMID 23326631. Conditions: over other ThDP-dependent enzymes; cited from earlier work.
Another series relates to FVB mice. The experiment in a line: Acute toxicity dose-escalation study in mice. Conditions: n = 2. It counts as in vivo, mouse. The protocol: Six-week-old female FVB mice were administered BAP by intraperitoneal (IP) injection at doses of 1, 3, 10, 30, 100, and 300 mg/kg. The mice were observed every hour for 6 h post administration for signs of overt toxicity or mortality, or for symptoms related to pain/distress (ruffled fur, discharge from the eyes, dehydration, hunched posture, convulsions, lethargy, reluctance to move, uncoordinated movements, hypothermia, pale ears/feet, labored respiration, and/or cyanosis). Following initial observations, 6 h post administration, mice were then observed daily for signs of toxicity for 18 days. Mice that were administered the highest dose of BAP tested (300 mg/kg) were weighed at days 0, 1, 2, 5, 6, 7, 13, and 18.

Series [3] relates to UPEC (CFT073). The experiment in a line: Antimicrobial susceptibility of UPEC (CFT073) grown in urine. Format: cell-based, uropathogenic Escherichia coli. The protocol:
Pooled human urine was filter-sterilized prior to use. Solid urine agar plates were prepared by supplementing cooled 1.5% (wt/vol) agar with filter-sterilized urine in a 4:1 ratio. OD600 measurements were performed on a Beckman DU800 UV/Visible spectrophotometer (Brea, CA, USA). MIC determination data were collected from bacteria in 96-well plates (Nunc Edge 96-Well, Non-Treated, Flat-Bottom Microplate) incubated and read on a Biotek Epoch 2 microplate reader. Uropathogenic E. coli strain CFT073 (ATCC: BAA-2503) was obtained from the lab of Rodney Welch ([58]). All microbial manipulation of pathogenic bacteria was conducted in a certified biosafety level 2 laboratory following all associated safety protocols. A hand-held tissue homogenizer (purchased from IKA, T10 basic S001, 3737001) was used to homogenize mouse bladders for bacterial enumeration.
UPEC (CFT073) cells from frozen glycerol stocks were streaked onto urine agar plates and grown for 48 h at 37°C. Three to five isolated colonies were inoculated into filter-sterilized urine supplemented with FeSO4 (20 µM), and the cultures were grown overnight with shaking at 37°C. The saturated cultures were subcultured (1:50) in fresh urine supplemented with FeSO4 (20 µM) and grown to exponential phase (OD600 ~ 0.25). Cultures at exponential phase were diluted 1:1,000 into fresh urine supplemented with FeSO4 (20 µM) to yield the experimental inoculum which was mixed 1:1 with urine containing pro-hpAP at 2 × the desired final concentration (0–10 µM). The final concentration of bacteria in each well was ~10^5 CFU/mL in a volume of 200 µL. Colony counts of the experimental inoculum were independently verified by dilution and enumeration on LB agar, grown for 16 h at 37°C, to confirm consistency between experiments. The 96-well plates were incubated at 37°C for 16 h with intermittent shaking. Fractional growth of cells treated with pro-hpAP was determined at 8 h relative to the no drug control. MIC determination was performed in biological triplicate.

Where [4] appears, read: Bladder, single 100 mg/kg IP dose of BAP.
Setting [5] is: Brain, single 100 mg/kg IP dose of BAP.
The mark [6] stands for this setting: Kidney, single 100 mg/kg IP dose of BAP.
[7] abbreviates: Plasma, single 100 mg/kg IP dose of BAP.

The structures appear in SMILES notation. In brackets after ≈: the same amount, converted by molar mass. Entries after “also recorded” stand apart in the source; their conditions may differ. Like-named read-outs stand apart in the source and are kept apart here. Where only a bound is given, the exact number is not on record here.

In general, Cmax refers to the highest concentration seen after dosing. A word on the Tmax: it is the time from dosing to the highest level. For `CCCCOP(=O)(O)C(C)=O` [BAP, butyl acetylphosphonate], the “MIC (growth suppressed >90%)” value in the series with UPEC (CFT073) [1] (UPEC CFT073 in urine) is recorded as 1250 µM (≈ 225 µg/mL). In addition, the “reduction in UPEC growth” value in the series on UPEC (CFT073) [1] (in urine, at 156 µM BAP) was ~ 80%. Also, the AUC(0-t) in series [2] (setting [4]) worked out at 1990 ± 110 µM·h; in series [2] (setting [5]), 12.5 ± 1.8 µM·h; in series [2] (setting [6]), 136 ± 7 µM·h; in series [2] (setting [7]), 233 ± 27 µM·h. For the same molecule, the Cmax in series [2] (setting [4]) stood at 1840 ± 230 µM; in series [2] (setting [5]), 16.2 ± 2.6 µM; in series [2] (setting [6]) it was 298 ± 37 µM; in series [2] (setting [7]), 650 ± 190 µM. Also, the time to peak (Tmax) in series [2] (setting [4]), in series [2] (setting [6]) and in series [2] (setting [7]) was 4.8 min in each case. Further, the AUC in series [2] (bladder, BAP 100 mg/kg IP) was 1,990 ± 110 nmol h/g; in series [2] (brain, BAP 100 mg/kg IP), 12.5 ± 1.8 nmol·h/g; in series [2] (kidney, BAP 100 mg/kg IP), 136 ± 7 nmol·h/g; in series [2] (plasma, BAP 100 mg/kg IP), 233 ± 27 nmol·h/mL. Moreover, the “selectivity for DXPS” value in the series with DXPS was “selective for DXPS over other ThDP-dependent enzymes”. Also, the body weight entry with FVB mice (single IP dose 300 mg/kg, weighed for 18 days, 300 mg/kg) was “weight was maintained throughout the observation period; also recorded: no symptoms of distress or change in weight”. Moreover, the “overt toxicity or altered behavior” value in the series on FVB mice (single IP dose, escalating up to 300 mg/kg, observed 18 days) is “No overt toxicity or altered behavior was observed; also recorded: no symptoms of distress”.

The term MIC denotes the lowest concentration found to suppress growth. For the molecule `C#CCCOP(=O)(O)C(=C)NC(=O)C(CC(C)C)NC(=O)CN` (stereo not drawn) [pro-hpAP], the minimum inhibitory concentration (MIC) with UPEC (CFT073) [3] (Escherichia coli, UPEC CFT073 in urine, read-out: MIC (growth suppressed >90%)) was 5 µM (≈ 1.73 µg/mL). The “reduction in fractional growth” value in the series on UPEC (CFT073) [3] (UPEC CFT073 in urine, at 630 nM pro-hpAP, 8 h) is more than 70%. In the series on UPEC (CFT073) [3] (UPEC in urine, relative to BAP), the “higher potency than BAP (MIC in urine)” value is 250 fold. Also, the AUC is 6.2 ± 1.3 nmol·h/g in series [2] (bladder, pro-hpAP 30 mg/kg IP, analyte = labelled substance (pro-hpAP or released hpAP)); 3.2 ± 0.21 nmol·h/mL in series [2] (both sexes, CD1, mouse, plasma, pro-hpAP 30 mg/kg IP, analyte = labelled substance, read-out: AUC); 0.115 ± 0.014 nmol·h/g in series [2] (brain, pro-hpAP 30 mg/kg IP, analyte = labelled substance); 0.516 ± 0.048 nmol·h/g in series [2] (kidney, pro-hpAP 30 mg/kg IP, analyte = labelled substance). In addition, the Cmax in series [2] (both sexes, CD1, mouse, Bladder, single 30 mg/kg IP dose of pro-hpAP, analyte = labelled substance) worked out at 24.3 ± 8.5 µM; in series [2] (both sexes, CD1, mouse, Brain, single 30 mg/kg IP dose of pro-hpAP, analyte = labelled substance) it was 0.134 ± 0.036 µM; in series [2] (both sexes, CD1, mouse, Kidney, single 30 mg/kg IP dose of pro-hpAP, analyte = labelled substance) it was 0.715 ± 0.09 µM; in series [2] (both sexes, CD1, mouse, Plasma, single 30 mg/kg IP dose of pro-hpAP, analyte = labelled substance (pro-hpAP or released hpAP)), 20.2 ± 1.9 µM. Also, the AUC(0-t) in series [2] (both sexes, CD1, mouse, Bladder, single 30 mg/kg IP dose of pro-hpAP, analyte = labelled substance, read-out: AUC0-t) stood at 6.2 ± 1.3 µM·h; in series [2] (both sexes, CD1, mouse, Brain, single 30 mg/kg IP dose of pro-hpAP, analyte = labelled substance, read-out: AUC0-t) it was 0.115 ± 0.014 µM·h; in series [2] (both sexes, CD1, mouse, Kidney, single 30 mg/kg IP dose of pro-hpAP, analyte = labelled substance, read-out: AUC0-t), 0.516 ± 0.048 µM·h; in series [2] (both sexes, CD1, mouse, Plasma, single 30 mg/kg IP dose of pro-hpAP, analyte = labelled substance, read-out: AUC0-t) it was 3.2 ± 0.21 µM·h. Further, the Tmax in series [2] (both sexes, CD1, mouse, Bladder, single 30 mg/kg IP dose of pro-hpAP, analyte = labelled substance, read-out: Tmax) stood at 4.8 min; in series [2] (both sexes, CD1, mouse, Brain, single 30 mg/kg IP dose of pro-hpAP, analyte = labelled substance, read-out: Tmax) it was 4.8 min; in series [2] (both sexes, CD1, mouse, Kidney, single 30 mg/kg IP dose of pro-hpAP, analyte = labelled substance, read-out: Tmax) it was 4.8 min; in series [2] (both sexes, CD1, mouse, Plasma, single 30 mg/kg IP dose of pro-hpAP, analyte = labelled substance, read-out: Tmax), 4.8 min.
